From US10899754B2, “Modulators of indoleamine 2,3-dioxygenase” (GLAXOSMITHKLINE INTELLECTUAL PROPERTY DEVELOPMENT LIMITED, priority 2016, dated 2021)

Key:
[1] = target: indoleamine 2, 3-dioxygenase (IDO1) (Homo sapiens, UniProt P14902); experiment: IDO1 PBMC RapidFire MS assay (kynurenine detection by mass spectrometry); format: cell-based; design: to induce the expression of indoleamine 2, 3-dioxygenase (IDO1); host or cells: human PBMC stimulated with IFN-gamma and LPS; settings: human PBMC stimulated with IFN-γ and LPS, 2 days, pIC50, read-out: PBMC PXC50 (converted)
Method: IDO1 PBMC RapidFire MS Assay
(§1) Compounds of the present invention were tested via high-throughput cellular assays utilizing detection of kynurenine via mass spectrometry and cytotoxicity as end-points. For the mass spectrometry and cytotoxicity assays, human peripheral blood mononuclear cells (PBMC) (PB003F; AllCells®, Alameda, Calif.) were stimulated with human interferon-γ (IFN-γ) (Sigma-Aldrich Corporation, St. Louis, Mo.) and lipopolysaccharide from Salmonella minnesota (LPS) (Invivogen, San Diego, Calif.) to induce the expression of indoleamine 2, 3-dioxygenase (IDO1). Compounds with IDO1 inhibitory properties decreased the amount of kynurenine produced by the cells via the tryptophan catabolic pathway. Cellular toxicity due to the effect of compound treatment was measured using CellTiter-Glo® reagent (CTG) (Promega Corporation, Madison, Wis.), which is based on luminescent detection of ATP, an indicator of metabolically active cells.
(§2) In preparation for the assays, test compounds were serially diluted 3-fold in DMSO from a typical top concentration of 1 mM or 5 mM and plated at 0.5 μL in 384-well, polystyrene, clear bottom, tissue culture treated plates with lids (Greiner Bio-One, Kremsmünster, Austria) to generate 11-point dose response curves. Low control wells (0% kynurenine or 100% cytotoxicity) contained either 0.5 μL of DMSO in the presence of unstimulated (−IFN-γ/−LPS) PBMCs for the mass spectrometry assay or 0.5 μL of DMSO in the absence of cells for the cytotoxicity assay, and high control wells (100% kynurenine or 0% cytotoxicity) contained 0.5 μL of DMSO in the presence of stimulated (+IFN-γ/+LPS) PBMCs for both the mass spectrometry and cytotoxicity assays.
(§3) Frozen stocks of PBMCs were washed and recovered in RPMI 1640 medium (Thermo Fisher Scientific, Inc., Waltham, Mass.) supplemented with 10% v/v heat-inactivated fetal bovine serum (FBS) (Thermo Fisher Scientific, Inc., Waltham, Mass.), and 1× penicillin-streptomycin antibiotic solution (Thermo Fisher Scientific, Inc., Waltham, Mass.). The cells were diluted to 1,000,000 cells/mL in the supplemented RPMI 1640 medium. 50 μL of either the cell suspension, for the mass spectrometry assay, or medium alone, for the cytotoxicity assay, were added to the low control wells, on the previously prepared 384-well compound plates, resulting in 50,000 cells/well or 0 cells/well respectively. IFN-γ and LPS were added to the remaining cell suspension at final concentrations of 100 ng/ml and 50 ng/ml respectively, and 50 μL of the stimulated cells were added to all remaining wells on the 384-well compound plates. The plates, with lids, were then placed in a 37° C., 5% CO2 humidified incubator for 2 days.
(§4) Following incubation, the 384-well plates were removed from the incubator and allowed to equilibrate to room temperature for 30 minutes. For the cytotoxicity assay, CellTiter-Glo® was prepared according to the manufacturer's instructions, and 40 μL were added to each plate well. After a twenty minute incubation at room temperature, luminescence was read on an EnVision® Multilabel Reader (PerkinElmer Inc., Waltham, Mass.). For the mass spectrometry assay, 10 μL of supernatant from each well of the compound-treated plates were added to 40 μL of acetonitrile, containing 10 μM of an internal standard for normalization, in 384-well, polypropylene, V-bottom plates (Greiner Bio-One, Kremsmünster, Austria) to extract the organic analytes. Following centrifugation at 2000 rpm for 10 minutes, 10 μL from each well of the acetonitrile extraction plates were added to 90 μL of sterile, distilled H2O in 384-well, polypropylene, V-bottom plates for analysis of kynurenine and the internal standard on the RapidFire 300 (Agilent Technologies, Santa Clara, Calif.) and 4000 QTRAP MS (SCIEX, Framingham, Mass.). MS data were integrated using Agilent Technologies' RapidFire Integrator software, and data were normalized for analysis as a ratio of kynurenine to the internal standard. […]

[2] = tested on: human peripheral blood mononuclear cells (PBMC); experiment: PBMC cytotoxicity assay (CellTiter-Glo); format: cell-based; settings: 2 days, pCC50
Method: as §1, §2, §3, §4

Sequence of indoleamine 2, 3-dioxygenase (IDO1) (P14902 whole entry): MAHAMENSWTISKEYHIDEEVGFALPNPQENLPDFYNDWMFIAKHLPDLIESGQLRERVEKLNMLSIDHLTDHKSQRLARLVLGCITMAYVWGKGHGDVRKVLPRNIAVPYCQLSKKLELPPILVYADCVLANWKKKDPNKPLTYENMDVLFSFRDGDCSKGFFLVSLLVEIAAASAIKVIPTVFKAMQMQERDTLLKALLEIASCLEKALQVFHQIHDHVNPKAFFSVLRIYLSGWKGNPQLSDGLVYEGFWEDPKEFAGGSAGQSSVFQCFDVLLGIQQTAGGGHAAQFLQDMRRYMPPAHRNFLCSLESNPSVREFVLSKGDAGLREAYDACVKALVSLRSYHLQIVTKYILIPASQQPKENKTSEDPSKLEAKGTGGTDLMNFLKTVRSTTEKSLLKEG

IC50 [1]	Compound	PBMC TOX PXC50 [2]
0.794 nM	CO[C@H]1CC[C@@H](N(CC(C)C)c2ccc([C@H](C)CC(=O)O)cc2Nc2ccc(Cl)cn2)CC1 [Example 47, (R)-3-(3-((5-chloropyridin-2-yl)amino)-4-(isobutyl((1s,4S)-4-methoxycyclohexyl)amino)phenyl)butanoic Acid]	<5
6.31 nM	CC(C)CN(c1ccc([C@H](C)CC(=O)O)cc1Nc1n[nH]c(Cl)n1)C1CCOCC1 [Example 34, (R)-3-(3-((5-Chloro-1H-1,2,4-triazol-3-yl)amino)-4-(isobutyl(tetrahydro-2H-pyran-4-yl)amino)phenyl)butanoic Acid]	<5
3.16 nM	CC(C)CN(c1ccc([C@H](C)CC(=O)O)cc1Nc1nc(C(C)C)ns1)C1CCOCC1 [Example 26, (R)-3-(4-(isobutyl(tetrahydro-2H-pyran-4-yl)amino)-3-((3-isopropyl-1,2,4-thiadiazol-5-yl)amino)phenyl)butanoic Acid]	<5
10 nM	COCc1ccc(Nc2cc([C@H](C)CC(=O)O)ccc2N(CC(C)C)[C@H]2CC[C@@H](OC)CC2)nc1 [Example 60, (R)-3-(4-(isobutyl((1s,4S)-4-methoxycyclohexyl)amino)-3-((5-(methoxymethyl)pyridin-2-yl)amino)phenyl)butanoic Acid]	<5
79.4 nM	CO[C@H](C)CN(C[C@@H](C)OC)c1ccc([C@H](C)CC(=O)O)cc1Nc1nc(C(F)(F)F)ns1 [example 258, (3R)-3-(4-{bis[(2R)-2-methoxypropyl]amino}-3-{[3-(trifluoromethyl)-1,2,4-thiadiazol-5-yl]amino}phenyl)butanoic acid]	<5
501 nM	CC(C)CN(c1ccc([C@H](C)CC(=O)O)cc1Nc1cnc(C(N)=O)nc1)C1CCOCC1 [example 263, (3R)-3-{3-[(2-carbamoylpyrimidin-5-yl)amino]-4-[(2-methylpropyl)(oxan-4-yl)amino]phenyl}butanoic acid]	<5
39.8 nM	CO[C@H]1CC[C@H](N(CC(C)C)c2ccc([C@H](C)CC(=O)O)cc2Nc2n[nH]c(C3CC3)n2)CC1 (racemic) [example 221, (3RS)-3-{3-[(5-cyclopropyl-1H-1,2,4-triazol-3-yl)amino]-4-[(2-methylpropyl)[(1rs&,4rs&)-4-methoxycyclohexyl]ami-no]phenyl}butanoic acid]	<5
2 nM	CC(C)CN(c1ccc([C@H](C)Cc2nnn[nH]2)cc1Nc1nc(Cl)ns1)C1CCOCC1 [Example 100, (R)-4-(1-(1H-tetrazol-5-yl)propan-2-yl)-N^2-(3-chloro-1,2,4-thiadiazol-5-yl)-N^1-isobutyl-N^1-(tetrahydro-2H-pyran-4-yl)benzene-1,2-diamine]	<5
3160 nM	CNC(=O)c1c[nH]c(Nc2cc([C@H](C)CC(=O)O)ccc2N(CC(C)C)C2CCOCC2)n1 [example 232, (3R)-3-(3-{[4-(methylcarbamoyl)-1H-imidazol-2-yl]amino}-4-[(2-methylpropyl)(oxan-4-yl)amino]phenyl)butanoic acid]	<5
126 nM	CC(C)CN(c1ccc([C@H](C)CC(=O)O)cc1Nc1ncc(C#N)cn1)C1CCOCC1 [example 254, (3R)-3-{3-[(5-cyanopyrimidin-2-yl)amino]-4-[(2-methylpropyl)(oxan-4-yl)amino]phenyl}butanoic acid]	<5
2 nM	COCCC(=O)N1CCC(N(CC(C)C)c2ccc([C@H](C)CC(=O)O)cc2Nc2nc(C(F)(F)F)ns2)CC1 [Example 68, (R)-3-(4-(isobutyl(1-(3-methoxypropanoyl)piperidin-4-yl)amino)-3-((3-(trifluoromethyl)-1,2,4-thiadiazol-5-yl)amino)phenyl)butanoic Acid]	<5
0.631 nM	CC(C)CN(c1ccc([C@H](C)CC(=O)O)cc1Nc1ccc(C(F)(F)F)nc1)C1CCOCC1 [Example 7, (R)-3-(4-(isobutyl(tetrahydro-2H-pyran-4-yl)amino)-3-((6-(trifluoromethyl)pyridin-3-yl)amino)phenyl)butanoic Acid]	<5
1.58 nM	CO[C@H]1CC[C@@H](N(CC(C)C)c2ccc([C@H](C)CC(=O)O)cc2Nc2ccc(C#N)cn2)CC1 [Example 53, (R)-3-(3-((5-cyanopyridin-2-yl)amino)-4-(isobutyl((1s,4S)-4-methoxycyclohexyl)amino)phenyl)butanoic Acid]	<5
2510 nM	CC(C)CN(c1ccc([C@H](C)CC(=O)O)cc1Nc1ccc(C(N)=O)cn1)C1CCOCC1 [example 240, (3R)-3-{3-[(5-carbamoylpyridin-2-yl)amino]-4-[(2-methylpropyl)(oxan-4-yl)amino]phenyl}butanoic acid]	<5
20 nM	CC(C)CN(c1ccc(C(C)NC(N)=O)cc1Nc1nc(C(F)(F)F)ns1)C1CCOCC1 (stereo not drawn) [example 249, (1-{4-[(2-methylpropyl)(oxan-4-yl)amino]-3-{[3-(trifluoromethyl)-1,2,4-thiadiazol-5-yl]amino}phenyl}ethyl) urea]	<5
398 nM	CC(C)CN(c1ccc([C@H](C)CC(=O)O)cc1Nc1ncn[nH]1)C1CCOCC1 [example 242, (3R)-3-{4-[(2-methylpropyl)(oxan-4-yl)amino]-3-[(1H-1,2,4-triazol-5-yl)amino]phenyl}butanoic acid]	<5
1.58 nM	CC(C)CN(c1ccc([C@H](C)CC(=O)O)cc1Nc1nc(C(F)(F)F)ns1)C1CCN(c2nc(C(F)(F)F)ns2)CC1 [Example 95, (R)-3-(4-(isobutyl(1-(3-(trifluoromethyl)-1,2,4-thiadiazol-5-yl)piperidin-4-yl)amino)-3-((3-(trifluoromethyl)-1,2,4-thiadiazol-5-yl)amino)phenyl)butanoic Acid]	<5
0.631 nM	CO[C@H]1CC[C@@H](N(CC(C)C)c2ccc([C@H](C)CC(=O)O)cc2Nc2nc(C(F)(F)F)ns2)CC1 [Example 43, (R)-3-(4-(isobutyl((1s,4S)-4-methoxycyclohexyl)amino)-3-((3-(trifluoromethyl)-1,2,4-thiadiazol-5-yl)amino)phenyl)butanoic Acid]	<5
31.6 nM	COCc1nc(Nc2cc([C@H](C)CC(=O)O)ccc2N(CC(C)C)[C@H]2CC[C@@H](OC)CC2)n[nH]1 (racemic) [example 243, (3RS)-3-(3-{[5-(methoxymethyl)-1H-1,2,4-triazol-3-yl]amino}-4-[(2-methylpropyl)[(1rs&,4rs&)-4-methoxycyclohexyl]ami-no]phenyl)butanoic acid]	<5
1.58 nM	COC(=O)N1CCC(N(CC(C)C)c2ccc([C@H](C)CC(=O)O)cc2Nc2nc(C(F)(F)F)ns2)CC1 [Example 66]	5.2

Compound	IC50 [1]	PBMC TOX PXC50 [2]
CC(C)CN(c1ccc(-c2ccccc2C(=O)O)cc1Nc1nc(C(F)(F)F)ns1)C1CC2(C1)CN(C(=O)OC(C)(C)C)C2 [Example 97, 4′-((2-(tert-butoxycarbonyl)-2-azaspiro[3.3]heptan-6-yl) (isobutyl)amino)-3′-((3-(trifluoromethyl)-1,2,4-thiadiazol-5-yl)amino)-[1,1′-biphenyl]-2-carboxylic Acid]	6.31 nM	<5
